In PubChem BioAssay AID192 (DTP/NCI, 2004):
Values joined by “and” are separate entries in the source; they are usually repeats but may differ in a detail not shown here. Identical values can stand only once. Inconclusive results and toxic doses are left out. Rule for the calls: active = survival T/C of 150% or more; inactive = T/C below 125% in these data. Square brackets hold non-standard residues; d marks the D form. Peptide text beside a SMILES is read from it. * marks the point of attachment. ξ: configuration not given here. ξF = NC(Cc1ccccc1)C(=O)O; ClAc = O=C(CCl)*

System: BDF1 mice, B16 melanoma ip, median survival T/C
Experiment: NCI In Vivo Anticancer Drug Screen. Data for tumor model B16 Melanoma (intraperitoneal) in B6D2F1 (BDF1) mice
Conditions: endpoint: median survival time, higher = longer survival
Procedure, shortened: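 Mice with transplantable tumors; drug vs vehicle groups; endpoint survival or tumor size; value = T/C.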

[1] = dose: 100.0 mg/kg/injection, schedule: Q01DX009 (ip), vehicle: Klucel (hydroxypropylcellulose) (HPC)
[2] = dose: 200.0 mg/kg/injection, schedule: Q01DX009 (ip), vehicle: Klucel (hydroxypropylcellulose) (HPC)
[3] = dose: 400.0 mg/kg/injection, schedule: Q01DX009 (ip), vehicle: Klucel (hydroxypropylcellulose) (HPC)
[4] = dose: 50.0 mg/kg/injection, schedule: Q01DX009 (ip), vehicle: saline with Tween-80
[5] = dose: 100.0 mg/kg/injection, schedule: Q01DX009 (ip), vehicle: saline with Tween-80
[6] = dose: 200.0 mg/kg/injection, schedule: Q01DX009 (ip), vehicle: saline with Tween-80
[7] = dose: 6.25 mg/kg/injection, schedule: Q01DX009 (ip), vehicle: saline
[8] = dose: 50.0 mg/kg/injection, schedule: Q01DX009 (ip), vehicle: saline
[9] = dose: 12.5 mg/kg/injection, schedule: Q01DX009 (ip), vehicle: Klucel (hydroxypropylcellulose) (HPC)
[10] = dose: 25.0 mg/kg/injection, schedule: Q01DX009 (ip), vehicle: Klucel (hydroxypropylcellulose) (HPC)
[11] = dose: 50.0 mg/kg/injection, schedule: Q01DX009 (ip), vehicle: Klucel (hydroxypropylcellulose) (HPC)
[12] = dose: 25.0 mg/kg/injection, schedule: Q01DX009 (ip), vehicle: saline with Tween-80
[13] = dose: 6.25 mg/kg/injection, schedule: Q01DX009 (ip), vehicle: Klucel (hydroxypropylcellulose) (HPC)
[14] = dose: 12.5 mg/kg/injection, schedule: Q01DX009 (ip), vehicle: saline with Tween-80
[15] = dose: 200.0 mg/kg/injection, schedule: Q01DX009 (ip), vehicle: saline

Measured: T/C

Cc1ccc(Nc2ccc([N+](=O)[O-])cc2[N+](=O)[O-])c(C)c1
inactive: [1] 93 % of control | [2] 98 % of control | [3] 97 % of control

O=C(CCl)NCC(=O)NC(Cc1ccccc1)C(=O)O (stereo unspecified) (ClAc-Gly-[ξF]-OH)
inactive: [4] 103 % of control | [5] 100 % of control | [6] 93 % of control

CC[N](CC)[Ge]([CH2]C)[CH2]C.CC[N](CC)[Ge]([CH2]C)[CH2]C
inactive: [7] 100 % of control | dose: 12.5 mg/kg/injection, schedule: Q01DX009 (ip), vehicle: saline 99 % of control | dose: 25.0 mg/kg/injection, schedule: Q01DX009 (ip), vehicle: saline 88 % of control | [8] 86 % of control

CC(=O)O[C@H]1CC[C@H]2[C@@H]3CC[C@H]4CC=C(C#N)C[C@]4(C)[C@H]3CC[C@]12C
inactive: [9] 86 % of control | [10] 94 % of control | [11] 88 % of control

Nc1nc(=S)c2ncn(C3OC(COC(=O)c4ccccc4)C(OC(=O)c4ccccc4)C3OC(=O)c3ccccc3)c2[nH]1 (stereo unspecified)
inactive: [12] 115 % of control

CCCc1c2cc(OC)c(OC)cc2cc2c3cc(OC)c(OC)cc3cc[n+]12 (tested in a mixture with another compound)
inactive: [13] 100 % of control | [9] 96 % of control | [10] 100 % of control

Cc1cc(Cl)ccc1NC(=O)c1cccc(C(=O)Nc2ccc(Cl)cc2C)c1
inactive: [1] 100 % of control | [2] 100 % of control | [3] 96 % of control

CC1(C)Oc2c(ccc(O)c2CN2CCOCC2)C2=C1CCCC2
inactive: dose: 64.0 mg/kg/injection, schedule: Q01DX009 (ip), vehicle: Klucel (hydroxypropylcellulose) (HPC) 96 % of control | dose: 128.0 mg/kg/injection, schedule: Q01DX009 (ip), vehicle: Klucel (hydroxypropylcellulose) (HPC) 96 % of control | dose: 256.0 mg/kg/injection, schedule: Q01DX009 (ip), vehicle: Klucel (hydroxypropylcellulose) (HPC) 101 % of control

COc1cc2c(c3c1c(=O)c1ccccc1n3C)C=CC(C)(C)O2
inactive: [12] 102 % of control | [4] 107 % of control

CC/C(=C\c1cccc([N+](=O)[O-])c1)C(=O)O
inactive: dose: 100.0 mg/kg/injection, schedule: Q04DX003 (ip), vehicle: Klucel (hydroxypropylcellulose) (HPC) 94 % of control | dose: 200.0 mg/kg/injection, schedule: Q04DX003 (ip), vehicle: Klucel (hydroxypropylcellulose) (HPC) 94 % of control | dose: 400.0 mg/kg/injection, schedule: Q04DX003 (ip), vehicle: Klucel (hydroxypropylcellulose) (HPC) 91 % of control

C[C@@H]1CC2=CC(=O)CC[C@@H]2[C@H]2CC[C@@]3(C)[C@@H](CC[C@]3(C)O)[C@@H]21
inactive: [12] 102 % of control | [4] 92 % of control and 113 % of control | [5] 97 % of control and 108 % of control

Cc1c2c(ccc3ccccc32)c[n+]2ccccc12
inactive: dose: 1.56 mg/kg/injection, schedule: Q01DX009 (ip), vehicle: suspension in saline 98 % of control | dose: 3.12 mg/kg/injection, schedule: Q01DX009 (ip), vehicle: suspension in saline 101 % of control | dose: 6.25 mg/kg/injection, schedule: Q01DX009 (ip), vehicle: suspension in saline 106 % of control | dose: 12.5 mg/kg/injection, schedule: Q01DX009 (ip), vehicle: suspension in saline 103 % of control

COc1ccc(C2NC(=O)c3ccccc3N2)c(OC)c1OC (stereo unspecified)
inactive: [1] 103 % of control | [2] 112 % of control | [3] 109 % of control

CC(C)=CN1CCCCC1
inactive: [14] 101 % of control | [12] 105 % of control | dose: 25.0 mg/kg/injection, schedule: Q04DX003 (ip), vehicle: saline with Tween-80 104 % of control | [4] 108 % of control | dose: 50.0 mg/kg/injection, schedule: Q04DX003 (ip), vehicle: saline with Tween-80 109 % of control | dose: 100.0 mg/kg/injection, schedule: Q04DX003 (ip), vehicle: saline with Tween-80 90 % of control | [6] 86 % of control

CC1(C)N=C(N)N=C(N)N1c1ccc(F)c(C(F)(F)F)c1
inactive: dose: 3.12 mg/kg/injection, schedule: Q01DX009 (ip), vehicle: saline 96 % of control | [7] 118 % of control | dose: 12.0 mg/kg/injection, schedule: Q01DX009 (ip), vehicle: saline 120 % of control

C=C(C)[C@]12CC(C)C34OC(/C=C\C=C\CCCCCCCCC)(O[C@@H]1[C@@H]3[C@@H]1O[C@]1(CO)[C@@H](O)[C@]1(O)C(=O)C(C)=C[C@@H]41)O2 (stereo partly specified)
inactive: dose: 0.09 mg/kg/injection, schedule: Q01DX009 (ip), vehicle: alcohol 88 % of control | dose: 0.18 mg/kg/injection, schedule: Q01DX009 (ip), vehicle: saline + alcohol 98 % of control | dose: 0.19 mg/kg/injection, schedule: Q01DX009 (ip), vehicle: alcohol 88 % of control | dose: 0.37 mg/kg/injection, schedule: Q01DX009 (ip), vehicle: saline + alcohol 89 % of control

CCCCCCCCCCCCCCCCCC(=O)[O][Hg][c]1ccccc1
inactive: dose: 6.25 mg/kg/injection, schedule: Q01DX009 (ip), vehicle: saline with Tween-80 97 % of control | [14] 105 % of control

CC1NC(=O)COC1c1ccccc1 (stereo unspecified)
inactive: [9] 95 % of control | dose: 12.5 mg/kg/injection, schedule: Q04DX003 (ip), vehicle: saline 95 % of control | [10] 95 % of control | dose: 25.0 mg/kg/injection, schedule: Q04DX003 (ip), vehicle: saline 92 % of control | [11] 102 % of control | dose: 50.0 mg/kg/injection, schedule: Q04DX003 (ip), vehicle: saline 97 % of control | [1] 97 % of control | dose: 100.0 mg/kg/injection, schedule: Q04DX003 (ip), vehicle: saline 95 % of control | dose: 200.0 mg/kg/injection, schedule: Q04DX003 (ip), vehicle: saline 97 % of control

CN1CCC(CO)C1 (stereo unspecified)
inactive: dose: 6.25 mg/kg/injection, schedule: Q01DX009 (ip), vehicle: water 99 % of control | dose: 12.5 mg/kg/injection, schedule: Q01DX009 (ip), vehicle: water 109 % of control | dose: 25.0 mg/kg/injection, schedule: Q01DX009 (ip), vehicle: water 108 % of control | [8] 100 % of control | dose: 50.0 mg/kg/injection, schedule: Q01DX009 (ip), vehicle: water 103 % of control | dose: 100.0 mg/kg/injection, schedule: Q01DX009 (ip), vehicle: saline 97 % of control | [15] 91 % of control

C=CS(=O)(=O)c1ccccc1
inactive: [14] 96 % of control | [12] 94 % of control | [4] 98 % of control

CCCCN(CCCC)CCCC#N
inactive: [15] 92 % of control

CCCc1c(Cl)nc(Cl)nc1Cl
inactive: [13] 110 % of control | [9] 103 % of control | [10] 101 % of control and 109 % of control

O=C1C(N2CCCC2)=C(N2CC2)C(=O)C(N2CCCC2)=C1N1CC1
inactive: dose: 0.25 mg/kg/injection, schedule: Q01DX009 (ip), vehicle: saline 100 % of control | dose: 0.5 mg/kg/injection, schedule: Q01DX009 (ip), vehicle: saline 114 % of control | dose: 1.0 mg/kg/injection, schedule: Q01DX009 (ip), vehicle: saline 111 % of control | dose: 2.0 mg/kg/injection, schedule: Q01DX009 (ip), vehicle: saline 118 % of control
